Measurements taken from patent US20240384250A1, “FIBROBLAST GROWTH FACTOR 23 MODULATING COMPOUNDS” (THE UAB RESEARCH FOUNDATION, priority 2021, published 2024).
“Also recorded” adds a separate entry of the source.

How the values were obtained:
[1] = test system: adult rat ventricular myocytes (ARVMs); assay: Calcium transients and cell shortening in adult rat ventricular myocytes; assay type: cell-based
Protocol: As done before,^69 adult male Wistar rats (150-200 g) were killed and hearts were quickly removed and cannulated via the ascending aorta on a Langendorff system where they were retrograde perfused and digested by type II collagenase. Hearts were perfused with calcium-free Tyrode's solution supplemented with 0.2 mmol/L of ethyleneglycol-bis-((3-aminoethylether)-N,N, N′,N′-tetraacetic acid for 3 minutes. For the digestion, hearts were perfused with Tyrode's solution containing 0.1 mmol/L of CaCl2), 1 mg/ml of type II collagenase (Worthington), and 1 mg/ml of BSA for 3 to 4 minutes at room temperature. Cells were resuspended in Tyrode's solution containing 1 mmol/L of CaCl2). Tyrode's solution contains 130 mM NaCl, 5.4 mM KCl, 0.4 mM NaH2PO4, 0.5 mM MgCl2, 25 mM N-2-hydroxyethylpiperazine-N-2-ethanesulfonic acid, and 22 mM glucose. Adult rat ventricular myocytes (ARVMs) were loaded with the fluorescent Ca^2+ dye Fluo-3 AM (Thermo Fisher Scientific) for cytosolic Ca^2+ measurements. Loaded ARVMs were acutely perfused during 2 minutes with vehicle, FGF23 (10 ng/ml), or a combination of FGF23 and heparin (0.7 USP/ml). Cytosolic Ca^2+ transients were recorded under 1 Hz of field stimulation using 2 parallel platinum electrodes. Images were obtained with confocal microscopy (Zeiss LSM 510-META microscope), using a 40× objective by scanning the cell with an argon laser every 1.54 ms. Fluo-3 AM was excited at 488 nm, and emissions were collected at >505 nm. Cell contraction was stimulated as the difference in cell length between rest and contraction (during electrical stimulation), expressed as a percentage of shortening of the cell length. Image analysis was performed with self-made routines using IDL (Research Systems) and ImageJ (v1.53) software.

[2] = test system: FGF19 binding to FGFR isoforms 1c, 2c, 3c, 4; assay: Pull-down and plate binding of FGF19 to FGFR isoforms with sKL or heparin; design: species or system human
Sequence of FGF19 binding to FGFR isoforms 1c, 2c, 3c, 4 (O95750 25-216): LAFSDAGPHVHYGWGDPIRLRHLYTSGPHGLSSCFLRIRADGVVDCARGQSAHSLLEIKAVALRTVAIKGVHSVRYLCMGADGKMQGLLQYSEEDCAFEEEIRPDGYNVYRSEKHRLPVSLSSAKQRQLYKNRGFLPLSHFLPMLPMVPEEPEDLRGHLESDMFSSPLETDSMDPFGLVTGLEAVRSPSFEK
Protocol: To study the interaction between Fc-tagged FGFR isoforms (Fc-FGFR), FGF isoforms, and sKL, immunoprecipitation studies were conducted. Protein A beads (6501, BioVision) and protein G beads (6511, BioVision) were used at 25 μl of a 50% stock slurry per sample in a total bead volume of 50 μl. Beads were washed 5× in activity buffer (50 mM Tris [pH 7.4], 200 mM NaCl, 0.01% Tween 20). Bead spin-down assays were all performed for 2 minutes at 5000 g. Beads were resuspended in 1 ml of activity buffer in a 1.5-ml snap cap tube. One microgram of Fc-FGFR1 to 4 was incubated with the beads for 1 hour on a bead rotator. Control samples were incubated with 2 μg of anti-FGF antibody instead of Fc-FGFR. […] Samples were analyzed using SDS-PAGE and Western blotting.
Proteins were coated on 96-well plates (MaxiSorp; 439454, Thermo Fisher Scientific), and proteins were added to wells in 100 μl of enzyme-linked immunosorbent assay (ELISA) coating buffer (E107, Bethyl Laboratories) with a lid placed overtop and incubated at 4° C. overnight. […] Reactions were stopped with ELISA stop solution (E115, Bethyl Laboratories) and analyzed using the Synergy HI plate reader (BioTek) at 450 nm wavelength. […] As a control to remove background absorbance values, wells were coated with an equal amount of BSA to match the amount of protein coated in experimental wells and treated the same as experimental wells. […]

FGF23 binding to FGFR1c = target: T1, FGF23 binding to FGFR1c (Homo sapiens, UniProt P11362+Q9GZV9); assay: Plate-based binding, FGF23 coated, then sKL, heparin or PBS, then Fc-FGFR; details: with sKL, with heparin 0.4 USP, or alone
T1 construct: Fc-coupled FGFR ectodomains were immobilized on protein A/G beads; purchased R&D Systems 2604FG025/CF or 2629FG025/CF; 658FR050
T1 sequence (Q9GZV9 25-251): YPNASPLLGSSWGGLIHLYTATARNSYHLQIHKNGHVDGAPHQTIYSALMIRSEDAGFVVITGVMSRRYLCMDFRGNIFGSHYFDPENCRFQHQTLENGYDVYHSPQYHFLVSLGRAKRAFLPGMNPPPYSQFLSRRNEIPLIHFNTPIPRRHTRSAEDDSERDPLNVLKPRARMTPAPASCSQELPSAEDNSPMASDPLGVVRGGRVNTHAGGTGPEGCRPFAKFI
T1 sequence (P11362 22-376 limits assumed): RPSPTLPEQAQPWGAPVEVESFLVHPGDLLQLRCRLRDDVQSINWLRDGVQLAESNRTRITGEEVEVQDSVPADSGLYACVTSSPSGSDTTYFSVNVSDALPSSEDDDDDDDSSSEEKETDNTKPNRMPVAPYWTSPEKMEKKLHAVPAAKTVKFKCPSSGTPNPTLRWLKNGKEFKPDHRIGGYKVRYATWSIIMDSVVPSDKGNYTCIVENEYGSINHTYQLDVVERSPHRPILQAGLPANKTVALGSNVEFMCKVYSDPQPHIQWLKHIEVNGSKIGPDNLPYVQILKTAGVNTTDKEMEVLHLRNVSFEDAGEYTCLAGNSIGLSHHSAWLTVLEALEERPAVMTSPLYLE
Protocol: (§1) Proteins were coated on 96-well plates (MaxiSorp; 439454, Thermo Fisher Scientific), and proteins were added to wells in 100 μl of enzyme-linked immunosorbent assay (ELISA) coating buffer (E107, Bethyl Laboratories) with a lid placed overtop and incubated at 4° C. overnight. Plates were washed 5× with 350 μl of assay buffer (50 mM Tris [pH 7.4], 200 mM NaCl, 0.01% Tween 20) on a 50 TS microplate washer (BioTek). Plates were blocked for 1 hour in 200 μl of assay buffer with 0.5% BSA. Plates were washed as before, and proteins were incubated on plates in 100 μl of assay buffer with 0.5% BSA. Proteins or heparin was incubated in orders described in the respective figure legends. Assays using FLAG-tag-based detection were incubated with anti-FLAG coupled to HRP at 1:20,000, and assays using Fc detection were incubated with anti-human Fc coupled to HRP at 1:10,000. Plates were washed as above, and 100 μl of 3,3′,5,5′-tetramethylbenzidine (TMB) substrate (E102, Bethyl Laboratories) was added for 15 to 20 minutes until positive wells developed a dark blue color. Reactions were stopped with ELISA stop solution (E115, Bethyl Laboratories) and analyzed using the Synergy HI plate reader (BioTek) at 450 nm wavelength. […] As a control to remove background absorbance values, wells were coated with an equal amount of BSA to match the amount of protein coated in experimental wells and treated the same as experimental wells. To study the effects of sKL on the binding between paracrine FGFs and FGFRs, plates were run as above except coated with paracrine FGFs. Fc-FGFR1 was preincubated with sKL or vehicle for 60 minutes, and then the combination was added to wells and the assay was run as before.

FGF23 binding to FGFR3c = target: T2, FGF23 binding to FGFR3c (Homo sapiens, UniProt P22607+Q9GZV9); assay: as above; details: with sKL, with heparin 0.4 USP, or alone
T2 construct: Fc-coupled FGFR ectodomains were immobilized on protein A/G beads; purchased R&D Systems 2604FG025/CF or 2629FG025/CF; 766FR050
T2 sequence (Q9GZV9 25-251): as the sequence (Q9GZV9 25-251) above
T2 sequence (P22607 23-375 limits assumed): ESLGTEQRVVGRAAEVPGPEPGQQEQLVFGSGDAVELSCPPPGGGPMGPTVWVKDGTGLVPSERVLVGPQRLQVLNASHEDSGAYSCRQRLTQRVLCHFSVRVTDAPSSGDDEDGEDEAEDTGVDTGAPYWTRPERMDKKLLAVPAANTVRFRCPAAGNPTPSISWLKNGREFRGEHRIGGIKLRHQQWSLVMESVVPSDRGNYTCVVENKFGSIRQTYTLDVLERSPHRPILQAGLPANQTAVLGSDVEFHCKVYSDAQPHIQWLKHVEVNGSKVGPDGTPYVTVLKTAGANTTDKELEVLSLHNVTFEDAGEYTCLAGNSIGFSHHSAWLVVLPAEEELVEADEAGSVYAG
Protocol: as §1

FGF23 binding to FGFR2c = target: T3, FGF23 binding to FGFR2c (Homo sapiens, UniProt P21802); assay: as above; details: with sKL, with heparin 0.4 USP, or alone
T3 construct: Fc-coupled FGFR ectodomains were immobilized on protein A/G beads; purchased R&D Systems 2604FG025/CF or 2629FG025/CF; 712FR050
T3 sequence (P21802 22-377 limits assumed): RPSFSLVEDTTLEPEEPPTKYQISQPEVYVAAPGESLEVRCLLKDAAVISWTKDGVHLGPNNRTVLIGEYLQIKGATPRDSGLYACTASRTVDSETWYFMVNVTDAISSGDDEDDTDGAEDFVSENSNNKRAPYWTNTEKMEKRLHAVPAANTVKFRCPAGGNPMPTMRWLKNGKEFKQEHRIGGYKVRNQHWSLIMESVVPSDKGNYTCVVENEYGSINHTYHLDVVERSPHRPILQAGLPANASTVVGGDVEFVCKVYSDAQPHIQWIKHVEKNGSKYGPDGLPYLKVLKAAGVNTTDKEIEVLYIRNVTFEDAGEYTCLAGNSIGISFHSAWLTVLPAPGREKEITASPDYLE
Protocol: as §1

FGF23 binding to FGFR4 = target: T4, FGF23 binding to FGFR4 (Homo sapiens, UniProt P22455+Q9GZV9); assay: as above; details: with sKL, with heparin 0.4 USP, or alone
T4 construct: Fc-coupled FGFR ectodomains were immobilized on protein A/G beads; purchased R&D Systems 2604FG025/CF or 2629FG025/CF; 685FR050
T4 sequence (Q9GZV9 25-251): as the sequence (Q9GZV9 25-251) above
T4 sequence (P22455 22-369 limits assumed): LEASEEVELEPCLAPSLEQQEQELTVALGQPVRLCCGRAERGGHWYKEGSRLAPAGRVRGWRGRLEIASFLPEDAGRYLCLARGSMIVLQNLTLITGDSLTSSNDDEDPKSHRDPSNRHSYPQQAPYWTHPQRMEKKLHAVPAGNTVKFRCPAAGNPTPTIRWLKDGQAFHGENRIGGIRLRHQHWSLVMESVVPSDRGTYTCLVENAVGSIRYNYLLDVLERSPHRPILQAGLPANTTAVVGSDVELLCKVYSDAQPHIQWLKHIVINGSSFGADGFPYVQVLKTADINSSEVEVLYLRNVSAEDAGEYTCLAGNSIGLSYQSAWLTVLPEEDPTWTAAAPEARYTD
Protocol: as §1

Substance: heparin [reference compound]
- FGF23 effect on [Ca2+]i transients in the presence of heparin ([1]; FGF23 10 ng/ml with heparin 0.7 USP/ml): became statistically significant; also recorded: significantly increased
- FGF23 effect on cell shortening with addition of heparin ([1]; FGF23 with heparin): significantly increased the effect of FGF23
- [Ca2+]i transients, heparin by itself ([1]; heparin 0.7 USP/ml): no significant effects
- cell shortening, heparin by itself ([1]; heparin alone): no significant effects
- binding of FGF19 to any of the FGFR isoforms [2]: does not mediate binding
- binding of coated FGF23 to Fc-FGFR1c (FGF23 binding to FGFR1c): no measurable binding
- binding of coated FGF23 to Fc-FGFR3c (FGF23 binding to FGFR3c): no measurable binding
- binding of coated FGF23 to Fc-FGFR2c (FGF23 binding to FGFR2c): to a much lesser extent to FGFR2c; also recorded: weaker binding to FGFR2c
- binding of coated FGF23 to Fc-FGFR4 (FGF23 binding to FGFR4): significantly increased; also recorded: the strongest
